The source made the active and inactive calls.
Experiments:
[1] = target: T1, 1-phosphatidylinositol 4,5-bisphosphate phosphodiesterase gamma-1 (Homo sapiens, UniProt P19174); assay: Counterscreen for inhibitors of phospholipase C isozymes (PLC-B3): Fluorescence-based biochemical high throughput dose response assay to identify inhibitors of phospholipase C isozymes (PLC-gamma1).
T1 sequence (P19174 whole entry): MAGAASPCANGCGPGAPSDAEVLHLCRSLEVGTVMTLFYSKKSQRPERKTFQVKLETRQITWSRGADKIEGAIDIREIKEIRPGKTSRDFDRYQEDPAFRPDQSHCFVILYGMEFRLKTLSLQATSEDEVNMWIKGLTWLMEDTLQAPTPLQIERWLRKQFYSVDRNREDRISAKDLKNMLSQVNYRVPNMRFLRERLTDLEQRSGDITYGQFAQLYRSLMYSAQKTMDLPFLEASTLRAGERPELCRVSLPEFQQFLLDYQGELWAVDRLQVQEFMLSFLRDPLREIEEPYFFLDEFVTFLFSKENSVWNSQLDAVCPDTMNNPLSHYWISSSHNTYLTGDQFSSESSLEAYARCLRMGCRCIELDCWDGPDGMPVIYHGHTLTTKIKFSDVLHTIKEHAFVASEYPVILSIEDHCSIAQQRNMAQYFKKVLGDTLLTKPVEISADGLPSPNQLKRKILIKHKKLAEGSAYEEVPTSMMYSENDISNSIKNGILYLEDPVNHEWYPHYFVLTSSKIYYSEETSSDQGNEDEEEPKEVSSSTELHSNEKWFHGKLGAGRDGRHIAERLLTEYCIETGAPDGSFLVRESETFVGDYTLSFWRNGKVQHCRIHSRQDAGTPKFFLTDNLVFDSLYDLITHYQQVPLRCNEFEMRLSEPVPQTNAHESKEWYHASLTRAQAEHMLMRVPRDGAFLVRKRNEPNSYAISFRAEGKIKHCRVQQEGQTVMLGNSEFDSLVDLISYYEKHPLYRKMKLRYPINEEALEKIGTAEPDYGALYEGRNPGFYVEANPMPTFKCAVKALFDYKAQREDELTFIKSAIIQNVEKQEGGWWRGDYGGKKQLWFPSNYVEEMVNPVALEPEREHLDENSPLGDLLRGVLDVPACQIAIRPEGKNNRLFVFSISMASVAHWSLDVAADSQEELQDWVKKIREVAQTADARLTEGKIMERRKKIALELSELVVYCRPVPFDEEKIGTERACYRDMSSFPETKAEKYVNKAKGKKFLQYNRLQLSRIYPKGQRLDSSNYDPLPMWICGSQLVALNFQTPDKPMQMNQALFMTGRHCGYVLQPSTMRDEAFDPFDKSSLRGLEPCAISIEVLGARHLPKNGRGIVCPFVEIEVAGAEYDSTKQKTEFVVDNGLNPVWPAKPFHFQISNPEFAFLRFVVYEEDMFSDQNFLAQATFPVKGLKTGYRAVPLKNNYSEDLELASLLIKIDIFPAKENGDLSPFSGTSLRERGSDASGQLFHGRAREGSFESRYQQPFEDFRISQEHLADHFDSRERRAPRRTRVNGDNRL

[2] = target: T2, Alkaline phosphatase, tissue-nonspecific isozyme (Homo sapiens, UniProt P05186); assay: TNAP enzyme inhibition by screening hits, dose response, selectivity assay for mouse IAP inhibitor project, biochemical, human TNAP, uHTS hits (AID 488906); assay type: functional
T2 sequence (P05186 whole entry): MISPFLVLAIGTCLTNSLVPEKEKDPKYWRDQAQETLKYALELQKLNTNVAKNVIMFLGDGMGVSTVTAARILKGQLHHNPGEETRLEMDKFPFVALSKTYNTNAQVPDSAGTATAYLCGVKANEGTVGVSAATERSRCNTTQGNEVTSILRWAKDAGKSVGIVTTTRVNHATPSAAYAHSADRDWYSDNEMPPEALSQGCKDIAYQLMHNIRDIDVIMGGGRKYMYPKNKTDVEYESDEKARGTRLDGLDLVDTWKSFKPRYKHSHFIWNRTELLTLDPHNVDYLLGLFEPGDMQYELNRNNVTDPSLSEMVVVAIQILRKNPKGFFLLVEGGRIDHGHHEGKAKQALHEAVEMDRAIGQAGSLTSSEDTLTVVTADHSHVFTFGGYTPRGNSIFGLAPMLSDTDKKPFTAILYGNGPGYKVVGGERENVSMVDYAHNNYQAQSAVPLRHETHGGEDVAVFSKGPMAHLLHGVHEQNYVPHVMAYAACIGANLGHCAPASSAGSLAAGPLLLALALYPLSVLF

cells [3] = assay type: functional, cell-based
[4] = off-target signal loss in HeLa-CEM21 co-culture – HeLa F-luc CTL cells, cherry-picked, counter-screen for HIV-1 Env fusion inhibitor project, dose response (AID 652040); assay type: functional, cell-based;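 also: potency for signal decrease marking cytotoxic or nonspecific inhibition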
cells [5] = assay type: functional, cell-based; remark: listed apart in the source

Row | IC50 [1] | IC50 [2] | SMILES | EC50 (cells [3]) | AC50 [4] | EC50 (cells [5])
1 | > 1.51 µM (active) | 91.8 µM (active) | O=C(O)CC(C(=O)O)N1C(=O)/C(=C/C=C/c2ccco2)SC1=S (stereo not given) |  |  | 
2 |  |  | CCCC(=O)NC(c1cccs1)c1cc(Cl)c2cccnc2c1O (stereo not given) | > 350 µM (not active) | 6.09 µM (active) | 24.4 µM (active)

Source: ChEMBL document CHEMBL1201862, “PubChem BioAssay data set” (2004)
